Test results published in US12559471B2, “1,5-dihydro-2,4-benzodiazepine-3-one derivative and application thereof” (JIANGSU NHWA PHARMACEUTICAL CO., LTD, priority 2020, dated 2026).

Columns and labels:
Assay type in all cases: in vivo
[1] = system: MPTP+MK-801-induced Parkinson's disease mouse model; test: MPTP+MK-801-induced Parkinson's disease mouse model (anti-PDP efficacy model); settings: ip, mice, intraperitoneal, read-out: PDP efficacy (high activity) ED50
Method: 1.1 Effect on MPTP+MK-801-induced Parkinson's disease mouse model (anti-PDP efficacy model)
Animals were injected with different doses of MPTP(1-methyl-4-phenyl-1,2,3,6-tetrahydropyridine) intraperitoneally every morning for 5 consecutive days. […] Then, after an interval of 0.25 h, the mice were placed into an autonomous activity test box (a black polyethylene box with the specification of 29 cm×29 cm×30 cm) for video recording for 20 min. Video analysis was performed after the video recording to evaluate the activity of the mice.

[2] = system: MPTP+APO-induced climbing behavior in male mice; test: MPTP+APO-induced climbing behavior in male mice (DA motor deterioration model); settings: observation in words
Method: 1.2 Effect on MPTP+APO-induced climbing behavior in male mice (DA motor deterioration model) Animals were injected with different doses of MPTP intraperitoneally every morning for 5 consecutive days. […] After the subcutaneous injection, animals were immediately placed into a climbing cage (self-made, a cylindrical cage with the diameter of 13 cm and the height of 15 cm, made of a stainless steel wire mesh with the diameter of about 0.1 cm, the bottom of which is a semitransparent polyethylene plate, and the cage cover of which is a stainless steel cage cover), and the behaviors of animals at minutes 10-11, 20-21 and 30-31 after the APO injection was observed and scored.
Scoring criteria: four feet on the floor scored 0; two forepaws on the cage scored 1; and four feet on the cage scored 2.

[3] = system: DOI-induced head shaking behavior of mice; test: DOI-induced head shaking (head thrust) test in mice; settings: Mus musculus, intragastric, DOI 1 mg/kg i.p., 0-20 min, read-out: ED50 for inhibiting the DOI-induced head shaking behavior
Method: 1. Head Thrust Test in Mice
Mice were stratified according to body weight and then randomly divided into a model control group, a blank control group and drug administration groups. 1 h after the intragastric administration of a vehicle or a drug, the animals were placed in a beaker (with the diameter of 13 cm and the height of 19 cm) paved with fresh padding, and were injected with a modeling drug DOI ((±)-1-(2,5-dimethoxy-4-iodophenyl)-2-aminopropane hydrochloride or (±)-2,5-dimethoxy-4-iodoamphetamine hydrochloride) intraperitoneally at a dose of 1 mg/kg. The head shaking times of the mice during the 0-20 min after the intraperitoneal injection of DOI were recorded. The head shaking behavior is defined as a rapid rotational twitching or wet dog-like shaking of the mouse head, which is distinguished from normal grooming or exploring behavior.

## CC(C)COc1ccc(CN2Cc3ccc(F)cc3CN(C3CCN(C)CC3)C2=O)cc1 [NH-K-A19005, 8-fluoro-2-(1-methylpiperidin-4-yl)-4-[[4-(2-methylpropoxy)phenyl]methyl]-1,5-dihydro-2,4-benzo diazepine-3-one]
[1]
  ED50: 1.85 mg/kg
[2]
  motor deterioration (DA mechanism of action): no motor deterioration is observed
[3]
  ED50: 0.15 mg/kg
